Where no end group is shown, it is not given here. The star is where a group is joined. Biotin = O=C1N[C@H]2[C@H](CS[C@H]2CCCCC(=O)*)N1
Tests used:
[1] = system: HSPA8 on the surface of SH-SY5Y cells; assay: Crosslinking of biotinylated TLQP-21 to live SH-SY5Y surface membrane proteins, avidin affinity, Western blot; type: binding, human; settings: 50 μM biotin-TLQP-21, 1 mM Sulfo-EMCS, 1 hour, room temperature; versus control without peptide
Protocol: After electrophoresis, as described earlier, proteins were transferred onto PVDF membranes (Millipore, Bedford) using semi-dry method (Trans-blot SD semi-dry transfer cell, Biorad). The membranes were then blocked 5% BSA in TBS-T solution (Tris-buffered saline with 0.1% tween 20, pH = 7.6) for 1 hour at room temperature, and probed with anti-HSC70/HSPA8 (Abcam) antibody at 1:500 dilution. Anti-rabbit antibody (Dako) at a 1:2000 dilution was used as the secondary antibody. Subsequently, the membrane was incubated with Luminata Forte Western HRP substrate [Merck Millipore] for 5 minutes and developed using Hypercassette and Amersham hyperfilm (GE Healthcare).
SH-SY5Y cells were grown as described above until confluence. Culture medium was removed, cells were washed three times with cold PBS and incubated with 2 mL of PBS containing 1 mM Sulfo-EMCS with 50 μM biotin-TLQP-21 for 1 hour at room temperature. Control cells were incubated under the same conditions with the same reaction mixture lacking biotin-TLQP-21. The cross-linking reaction was stopped adding Tris-HCl, pH 7.8 to a final concentration 50 mM. Cells were washed twice with cold PBS and solubilized in lysis buffer (20 mM HEPES pH 7.4, 2 mM EGTA, 1 mM DTT, 1 mM sodium orthovanadate, 1% Triton X-100, 10% glycerol, 2 μM leupeptin, 400 μM PMSF, 50 μM β-glycerophosphate and 100 μg/ml aprotinin). […]

[2] = system: HSPA8; settings: pooled fractions 4 and 5, anti-HSPA8 1:500, three replicates, versus control fractions
Protocol: A monomeric avidin column (Thermo Scientific) was washed with 8 ml PBS followed by addition of 6 ml (2 mM D-biotin in PBS, pH = 7.2) to block any non-reversible biotin binding sites. Regeneration buffer (0.1M glycine, pH 2.8, 12 ml) was added to remove biotin from the reversible binding sites followed by washing with 8 ml of PBS. One ml of 0.1 mM biotin-TLQP-21 was mixed with 900 μl of PBS and 100 μl of 1mM TCEP and the resulting solution was applied to the column, which was incubated for an hour at room temperature. The column was then washed with 12 ml of PBS. A 2ml solution containing 700 μl of SH-SY5Y cell lysate with a protein concentration of 10μg/μl was diluted with 1.3 ml of PBS and applied then to the column. The column was then washed with 12 ml of PBS, and eluted with 10 ml of blocking/elution buffer. Fractions of 500 μl were collected and kept on ice until further use for analysis by SYPRO® Ruby Protein Gel Stain (Lonza), and Western blot. As a control, cell lysate solution was added under the same conditions to a column to which biotin-TLQP-21 was not attached.
After electrophoresis, as described earlier, proteins were transferred onto PVDF membranes (Millipore, Bedford) using semi-dry method (Trans-blot SD semi-dry transfer cell, Biorad). […]

[3] = system: Heat shock cognate 71 kDa protein (HSPA8/HSC70); assay: Avidin-agarose affinity chromatography of SH-SY5Y cell homogenate with biotin-TLQP-21, SDS-PAGE/SYPRO Ruby and MASCOT MS/MS identification; HSPA8; type: binding, human; settings: fractions 4-5, control column without biotin-TLQP-21
Protocol: Portions (25 μl) of each elution fraction from avidin-agarose affinity chromatography were boiled in 2x Laemmli buffer and loaded to a 10% SDS-PAGE gel. Electrophoresis was carried out at 200V for 60 minutes. After completion, the gel was washed in dH2O for 10 minutes. […] The gel was then transferred to a clean staining container, and washed for 5 minutes with fixing solution followed by washing for 5 minutes in dH2O.Finally, the gel was imaged in a Molecular Imager Gel Doc system (Bio Rad, Hercules) using the highest sensitivity of the CCD camera (CoolSNAP HQ2, Roper Scientific) at a resolution of 1392 x 1040 pixels with 12 bit gray scale levels per pixel. […] Extracted peptides were analyzed by LC-MS/MS. […] Ionized peptides were detected in a Bruker Amazon ETD ion trap. Automated analysis of mass data was performed by Data Analysis 4.0 and BioTools 3.2 from Bruker Daltonik GmbH. Database search was done with the Mascot v2.3 search tool (Matrix Science) screening SwissProt (release 57.15). Searches were limited to human taxonomy selecting carbamidomethyl cysteine as a fixed modification and oxidized methionine as potential variable modification. […] All spectra and database results were scrutinized manually in details using the above software, especially in the case of identifications based on one peptide hit. […]

[4] = target: T1, HSPA8 (Homo sapiens, UniProt P11142); settings: ref [45]; read-out: affinity of HSPA8 for the phosphorylated peptide P140; cited from earlier work
T1 construct: HSPA8 immobilization was performed by adding 15 μl of 25 μg/ml of protein in 20 mM sodium acetate buffer
T1 sequence (P11142 whole entry): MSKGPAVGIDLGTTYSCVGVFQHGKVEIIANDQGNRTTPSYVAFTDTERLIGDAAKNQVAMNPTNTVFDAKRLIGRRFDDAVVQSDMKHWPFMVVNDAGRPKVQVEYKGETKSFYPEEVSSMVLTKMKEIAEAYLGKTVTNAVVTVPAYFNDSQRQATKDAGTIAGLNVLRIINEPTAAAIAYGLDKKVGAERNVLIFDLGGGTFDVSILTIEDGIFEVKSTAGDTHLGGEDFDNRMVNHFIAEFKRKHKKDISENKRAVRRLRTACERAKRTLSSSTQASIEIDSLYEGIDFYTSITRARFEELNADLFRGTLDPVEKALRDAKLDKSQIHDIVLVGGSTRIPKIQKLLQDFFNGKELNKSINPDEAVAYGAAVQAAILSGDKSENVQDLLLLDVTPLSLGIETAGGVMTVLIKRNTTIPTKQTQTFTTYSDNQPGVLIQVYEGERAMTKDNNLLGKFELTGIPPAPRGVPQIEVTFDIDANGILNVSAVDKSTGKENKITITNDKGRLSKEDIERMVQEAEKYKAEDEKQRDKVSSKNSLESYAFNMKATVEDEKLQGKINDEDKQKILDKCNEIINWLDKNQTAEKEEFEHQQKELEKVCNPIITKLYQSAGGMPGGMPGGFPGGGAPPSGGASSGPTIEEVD

[5] = system: complement component-3a receptor 1 (C3AR1); settings: ref [27]–[28]; cited from earlier work
Text: (§1) Remarkably, despite the large volume of data on effects of VGF-derived peptides, very little is known about their receptors, downstream signaling routes and mechanisms of action. […] We reasoned that the neuroblastoma cell line SH-SY5Y would be a good model to study receptors and downstream mechanisms of VGF-derived peptides, given the substantial expression and secrete levels of VGF and VGF-derived ...

[6] = system: globular head of the complement component C1q receptor (gC1qR); settings: ref [29]; cited from earlier work
Text: as §1

With “Biotin-TLQPPSALRRRHYHHALPPSRC [biotin-TLQP-21, amino-terminally biotinylated human TLQP-21 containing an extra cysteine residue at the C-terminus]” the “cross-linking to HSPA8 on live cell surface” value [1] was “A positive ~70kDa band corresponding to HSPA8 was detected”, the “Western blot detection of HSPA8 in eluate of biotin-TLQP-21 column” value [2] was “confirmed the ~70 kDa protein as HSPA8 but not in the controls” and the “~70 kDa protein bound on biotin-TLQP-21 column (SYPRO Ruby)” value [3] was “A ~70 kDa protein was bound”. For the same substance, the “~70 kDa protein bound on biotin-TLQP-21 column (SYPRO Ruby)” value ([3]; listed as biotinyl-TLQP-21) was “a protein band of ∼70 kDa was detected by SYPRO Ruby staining”.

For “P140: phosphorylated peptide P140, corresponds to a portion of the spliceosomal U1-70K snRNP protein, recognized by lupus CD4+ T cells (RIHMVYSKRSGKPRGYAFIEY; phospho-Ser140 (10th residue of the peptide); P140/Lupuzor is conventionally U1-70K (SNRNP70) 131-151)”, the Kd [4] is listed as about 7 µM.

In the case of “TLQPPASSRRRHFHHALPPAR [murine TLQP-21, mouse TLQP-21]”, the C3AR1 as receptor [5] is listed as “identified as potential receptors” and the gC1qR as receptor [6] is listed as “identified as potential receptors”.

Reference: paper PMC5608341, “The human VGF-derived bioactive peptide TLQP-21 binds heat shock 71 kDa protein 8 (HSPA8)on the surface of SH-SY5Y cells” (PLoS ONE, 2017)
